Experimental data as given in patent publication US6852737B2 (Recordati Ireland Limited, priority 2001, dated 2005).
Values joined by “and” are separate entries in the source; they are usually repeats but may differ in a detail not shown here. Identical values can stand only once. “Also recorded” adds a separate entry of the source. Counter-ions that a name gives are not always drawn. Marks after values point to notes of the source that are not given here.

What was measured:
[1] = Hygroscopicity (DVS analysis); type: physicochemical; conditions: 25° C.
Method: The hygroscopicity of both crystalline Forms (I) and (II) was measured with DVS analysis by means of a water absorption analyzer (SURFACE MEASUREMENT SYSTEM, Marion, Buckinghamshire, UK) according to the following working conditions: […]

[2] = Relative bioavailability in man; type: in vivo; conditions: single dose, hydrochloride
Method: Blood samples were taken at 15 points from time 0 to 24 h post-dosing and plasma concentrations of lercanidipine were determined with a stereoselective analytical method HPLC-MS/MS as described in Example 19a, as validated for man at the same concentration intervals.

[3] = Stability of crystalline forms; type: physicochemical; conditions: hydrochloride
[4] = Bioavailability of crystalline forms in dog; type: in vivo, Beagle dogs
Method: A study was carried out on six Beagle dogs to evaluate the bioavailability of crystalline Forms (I) and (II).
Blood samples were taken at given times and plasma concentrations of lercanidipine were determined with a stereoselective analytical method HPLC-MS/MS, according to the following working conditions;
Lercanidipine was extracted from dog plasma by means of a liquid-liquid extraction with a mixture of n-hexane and ethyl ether. The dry residue of the organic phase was taken up with a mixture of methanol and water and a liquid-phase chromatographic separation (LC) was carried out; the two enantiomers of lercanidipine were separated on a CHIROBIOTIC V column (Vancomycin) (particle size […], column size 150×4.6 mm (ASTEC, NJ, USA)) and were detected with a mass spectrometer (MS/MS) by using an electrospray technique.
The analytical method was validated in a concentration range between 0.1 and 20 ng/ml of plasma for both enantiomers. The method has shown to be specific with an accuracy of 15%. The average concentrations of lercanidipine in the tables represent the sum of both enantiomers.

With `COC(=O)C1=C(C)NC(C)=C(C(=O)OC(C)(C)CN(C)CCC(c2ccccc2)c2ccccc2)C1c1cccc([N+](=O)[O-])c1` (single isomer, unassigned) [Form (I), lercanidipine hydrochloride] the mass change ([1]; 0% RH) was −0.3%, the mass change ([1]; 95% RH) was “+0.15%” and the “AUC0−t, geom. least square mean” value ([2]; 10 mg tablet, 16 volunteers) was 8.82 ng·h/mL. For the same compound, the “Cmax, geom. least square mean” value ([2]; 10 mg tablet) was 3.18 ng/mL, the “tmax, median” value ([2]; 10 mg tablet) was 1.50* h and the “time of maximum concentration (tmax) compared to the other crystalline form” value [2] was “shorter time”. For the same compound, the stability [3] was “good stability; also recorded: stable”, the “concentration in plasma of lercanidipine (S + R)” value (“concentration in plasma” for short) ([4]; 0 h, Dog 1, oral 3 mg/kg) was 0.00 ng/mL and the “concentration in plasma” value ([4]; 0 h, Dog 2, oral 3 mg/kg) was 0.00 ng/mL. The “concentration in plasma” value ([4]; 0 h, Dog 3, oral 3 mg/kg) was 0.00 ng/mL, the “concentration in plasma” value ([4]; 0 h, Dog 4, oral 3 mg/kg) was 0.00 ng/mL and the “concentration in plasma” value ([4]; 0 h, Dog 5, oral 3 mg/kg) was 0.00 ng/mL. The “concentration in plasma” value ([4]; 0 h, Dog 6, oral 3 mg/kg) was 0.00 ng/mL, the “concentration in plasma” value ([4]; 0 h, Mean (dog 2 not included), oral 3 mg/kg) was 0.00 ng/mL and the “concentration in plasma” value ([4]; 0.5 h, Dog 1, oral 3 mg/kg, hydrochloride, 3 mg/kg) was 0.1 ng/mL. The “concentration in plasma” value ([4]; 0.5 h, Dog 2, oral 3 mg/kg, hydrochloride, 3 mg/kg) was 0.20 ng/mL, the “concentration in plasma” value ([4]; 0.5 h, Dog 3, oral 3 mg/kg, hydrochloride, 3 mg/kg) was 0.00 ng/mL and the “concentration in plasma” value ([4]; 0.5 h, Dog 4, oral 3 mg/kg) was 0.00 ng/mL. The “concentration in plasma” value ([4]; 0.5 h, Dog 5, oral 3 mg/kg) was 0.00 ng/mL, the “concentration in plasma” value ([4]; 0.5 h, Dog 6, oral 3 mg/kg) was 0.00 ng/mL and the “concentration in plasma” value ([4]; 0.5 h, Mean (dog 2 not included), oral 3 mg/kg, hydrochloride, 3 mg/kg) was 0.00 ng/mL. The “concentration in plasma” value ([4]; 1 h, Dog 1, oral 3 mg/kg, hydrochloride, 3 mg/kg) was 0.59 ng/mL, the “concentration in plasma” value ([4]; 1 h, Dog 2, oral 3 mg/kg, hydrochloride, 3 mg/kg) was 0.29 ng/mL and the “concentration in plasma” value ([4]; 1 h, Dog 3, oral 3 mg/kg, hydrochloride, 3 mg/kg) was 0.00 ng/mL. For the same compound, the “concentration in plasma” value ([4]; 1 h, Dog 4, oral 3 mg/kg, hydrochloride, 3 mg/kg) was 0.00 ng/mL, the “concentration in plasma” value ([4]; 1 h, Dog 5, oral 3 mg/kg, hydrochloride, 3 mg/kg) was 0.00 ng/mL and the “concentration in plasma” value ([4]; 1 h, Dog 6, oral 3 mg/kg) was 0.00 ng/mL. For the same compound, the “concentration in plasma” value ([4]; 1 h, Mean (dog 2 not included), oral 3 mg/kg, hydrochloride, 3 mg/kg) was 0.12 ng/mL, the “concentration in plasma” value ([4]; 1.5 h, Dog 3, oral 3 mg/kg, hydrochloride, 3 mg/kg) was 0.32 ng/mL and the “concentration in plasma” value ([4]; 1.5 h, Dog 4, oral 3 mg/kg, hydrochloride, 3 mg/kg) was 0.00 ng/mL. The “concentration in plasma” value ([4]; 1.5 h, Dog 6, oral 3 mg/kg, hydrochloride, 3 mg/kg) was 0.00 ng/mL, the “concentration in plasma” value ([4]; 1.5 h, Mean (dog 2 not included), oral 3 mg/kg, hydrochloride, 3 mg/kg) was 0.70 ng/mL and the “concentration in plasma” value ([4]; 2 h, Dog 3, oral 3 mg/kg, hydrochloride, 3 mg/kg) was 0.94 ng/mL. For the same compound, the “concentration in plasma” value ([4]; 2 h, Dog 4, oral 3 mg/kg, hydrochloride, 3 mg/kg) was 0.35 ng/mL, the “concentration in plasma” value ([4]; 2 h, Dog 6, oral 3 mg/kg, hydrochloride, 3 mg/kg) was 0.28 ng/mL and the “concentration in plasma” value ([4]; 3 h, Dog 3, oral 3 mg/kg, hydrochloride, 3 mg/kg) was 0.92 ng/mL. The “concentration in plasma” value ([4]; 6 h (last sampling time), Mean (dog 2 not included), oral 3 mg/kg, hydrochloride, 3 mg/kg) was 8.5 ± 6.5 ng/mL and 8.50 ng/mL, the “concentration in plasma” value ([4]; 6 h, Dog 1, oral 3 mg/kg, hydrochloride, 3 mg/kg) was 0.80 ng/mL and the “concentration in plasma” value ([4]; 6 h, Dog 5, oral 3 mg/kg, hydrochloride, 3 mg/kg) was 9.73 ng/mL. For the same compound, the “concentration in plasma” value ([4]; 6 h, Dog 6, oral 3 mg/kg, hydrochloride, 3 mg/kg) was 17.83 ng/mL, the Tmax ([4]; Dog 1, oral 3 mg/kg, hydrochloride, 3 mg/kg) was 2.00 h and the Tmax ([4]; Dog 2, oral 3 mg/kg, hydrochloride, 3 mg/kg) was 4.00 h. The Tmax ([4]; Dog 3, oral 3 mg/kg, hydrochloride, 3 mg/kg) was 6.00 h, the Tmax ([4]; Dog 4, oral 3 mg/kg, hydrochloride, 3 mg/kg) was 3.00 h and the Tmax ([4]; Dog 5, oral 3 mg/kg, hydrochloride, 3 mg/kg) was 3.00 h. The Tmax ([4]; Mean (n = 5, dog 2 not included), oral 3 mg/kg, hydrochloride, 3 mg/kg) was 4.00 h.
